Experimental data as given in patent publication US6576647B2, “Pseudopolymorph of (—)-cis-2-(2-chlorophenyl)-5,7-dihydroxy-8[4R-(3S-hydroxy -1-methyl)piperidinyl]-4H-1-benzopyran-4-one” (Aventis Pharmaceuticals Inc., priority 2000, dated 2003).
Entries after “also recorded” stand apart in the source; their conditions may differ.

Key:
[1] = Hygroscopicity screening by Dynamic Water Vapor Sorption Analysis (DVS); type: physicochemical; conditions: for weight gain: 25° C. and 40° C.; for hygroscopicity assessment: conclusion from DVS weight gain, hydrochloride
Method: Hygroscopicity Screening—Comparison of Form I and Form II
Dynamic Vapor Sorption (DVS) Analysis Studies were Conducted on Form II Versus Form I.
Dynamic Water Vapor Sorption Analysis (DVS)
Form II was studied at 25° C. using a Surface Measurement Systems Dynamic Vapor Sorption DVS-1 analyzer. A sample in the range of about 14.8 mg was placed in a tared quartz sample holder at an initial ambient room humidity setting of about 48% Relative Humidity (RH). A total wet/dry nitrogen flow rate of 200 cc/min was used throughout the study. The following full cycle program was initiated: 30 min at the initial ambient RH, followed by settings of 0, 20, 40, 60, 80, 90, 95 and 98% RH, with exposure time at each humidity set point dependent upon dm/dt being less than 0.001% for 60 min. The maximum time allowed at any one humidity set point was 24 hours. For a full cycle, data collection took about 4 days to complete. After the full cycle the sample was maintained at the same RH as the initial ambient starting RH.
Form I was studied at 25° C. and 40° C. using the DVS-1 analyzer. Data was collected over two full cycles. Samples of 10.4 and 16.7 mg were placed into respective tared quartz sample holders at an initial ambient room humidity setting of about 46% RH and 33% RH, respectively. For this study, an additional 75% RH set point was used. For 2 full cycles, data collection took about 7 days at 25° C. and about 17 days at 40° C. to complete. After completion of each 2 cycle study, the samples were maintained at the same RH as the initial ambient starting RH.

[2] = Variable humidity X-ray powder diffraction (crystallinity versus relative humidity); type: physicochemical; conditions: variable humidity XRPD; hydrochloride
From the text: X-ray Powder Diffraction (XRPD) patterns were taken on a Scintag XDS 2000 θ/θ diffractometer operating with copper radiation at 45 kV and 40 mA, using a Kevex Psi Peltier-cooled silicon detector. Source slits of 2 and 4 mm, and detector slits of 0.5 and 0.3 mm were used for data collection. Form II samples were gently milled using an agate mortar and pestle for approximately one minute, placed in a platinum sample pan, and leveled using a glass microscope slide. Samples taken during or post hygroscopicity testing were not milled due to the limited amount of sample available. In each case, powder diffraction patterns were scanned from 2° to 42° 2θ at 1°/minute. Calibration of the XDS 2000 was verified using Silicon powder.
For variable relative humidity experiments, the larger capacity DVS-2 Surface Measurement Systems Dynamic Vapor Sorption analyzer was used. Using a flow rate of 500 cc/min, Form II was held at desired RH settings and sampled periodically for XRPD analysis. Unmilled material was placed in the platinum sample pan and leveled using a glass microscope slide prior to analysis using the above conditions.

weight gain ([1]; DVS, above 90% RH) | weight gain ([1]; DVS, through about 75% RH) | additional weight gain ([1]; DVS, above 60% relative humidity, 25° C.) | Compound | hygroscopicity assessment [1] | crystallinity as the humidity is increased [2]
about 30% | 1-2% |  | CN1CC[C@H](c2c(O)cc(O)c3c(=O)cc(-c4ccccc4Cl)oc23)[C@H](O)C1.Cl (relative stereo) [Form I, (−)-cis-2-(2-chlorophenyl)-5,7-dihydroxy-8[4R-(3S-hydroxy-1-methyl)piperidinyl]-4H-1-benzopyran-4-one hydrochloride] | hygroscopic above 75% RH; also recorded: less hygroscopic than Form II | retains its crystallinity until extremely high relative humidity is reached
 |  | 15-20% | CN1CC[C@H](c2c(O)cc(O)c3c(=O)cc(-c4ccccc4Cl)oc23)[C@H](O)C1.Cl (relative stereo) [Form II, (−)-cis-2-(2-chlorophenyl)-5,7-dihydroxy-8[4R-(3S-hydroxy-1-methyl)piperidinyl]-4H-1-benzopyran-4-one hydrochloride, reference compound] | hygroscopic | apparent decrease in crystallinity
